Test results published in article PMC9301657 (Journal of biochemical and molecular toxicology, 2010).
Where a name gives a salt, the structure may show the parent alone.

How the values were obtained:
[1] = target: T1, r-SgAChE1 (Schizaphis graminum acetylcholinesterase-1) (Schizaphis graminum, UniProt Q9BMJ1); assay: Kinetics of substrate hydrolysis; assay type: biochemical; settings: for KM of r-SgAChE1 relative to SgAChE purified from the greenbug / Vmax of r-SgAChE1 relative to SgAChE purified from the greenbug: comparison with ref 13; for Km: read-out: KM (Michaelis constant); for Km / Vmax (maximum velocity) / Vmax: room temperature; for Km / Vmax: pH 7.0; for kcat × 10^−3 (turnover rate): values × 10^−3, calculated from molecular mass 64,597 Da and Vmax
T1 sequence (Q9BMJ1 98-659): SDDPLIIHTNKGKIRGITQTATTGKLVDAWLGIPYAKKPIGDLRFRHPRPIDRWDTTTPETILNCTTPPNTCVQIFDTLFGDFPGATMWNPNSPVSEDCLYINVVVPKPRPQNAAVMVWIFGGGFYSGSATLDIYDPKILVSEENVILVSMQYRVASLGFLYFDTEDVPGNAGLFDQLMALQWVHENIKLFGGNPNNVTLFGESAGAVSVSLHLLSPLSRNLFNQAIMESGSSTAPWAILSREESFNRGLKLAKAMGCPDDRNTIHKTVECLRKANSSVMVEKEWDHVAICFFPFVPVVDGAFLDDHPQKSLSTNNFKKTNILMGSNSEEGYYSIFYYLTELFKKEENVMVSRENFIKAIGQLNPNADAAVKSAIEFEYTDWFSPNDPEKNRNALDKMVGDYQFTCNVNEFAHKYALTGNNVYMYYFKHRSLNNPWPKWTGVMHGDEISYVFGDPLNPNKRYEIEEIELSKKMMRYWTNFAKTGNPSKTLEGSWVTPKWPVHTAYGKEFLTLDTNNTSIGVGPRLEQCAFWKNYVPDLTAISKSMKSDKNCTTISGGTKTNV

[2] = target: T1, r-SgAChE1 (Schizaphis graminum acetylcholinesterase-1); assay: Determination of IC50 for inhibition of purified r-SgAChE1; assay type: biochemical; settings: room temperature
[3] = target: T1, r-SgAChE1 (Schizaphis graminum acetylcholinesterase-1); assay: Inhibitory kinetic constants; assay type: biochemical; settings: for k2 (unimolecular rate constant) / ki / ki (bimolecular reaction constant, k2/Kd) / ki (bimolecular reaction constant): ATC substrate, room temperature
[4] = test system: SgAChE purified from the greenbug; settings: read-out: IC50 against SgAChE; native SgAChE; cited from earlier work
[5] = test system: SgAChE purified from the greenbug; settings: read-out: KM toward SgAChE; native SgAChE; cited from earlier work
[6] = target: T1, r-SgAChE1 (Schizaphis graminum acetylcholinesterase-1); assay type: biochemical

SMILES | KM of r-SgAChE1 relative to SgAChE purified from the greenbug [1] [fold] | Vmax of r-SgAChE1 relative to SgAChE purified from the greenbug [1] [fold] | Km [1] [µM] | Vmax (maximum velocity) [1] [U/mg] | Vmax [1] [U/mg Protein] | k2 (unimolecular rate constant) [3] [min⁻¹] | ki [3] [M⁻¹ s⁻¹] | other results
CC(=O)SC(C)C[N+](C)(C)C.[I-] (stereo not drawn) [AβMTC, acetyl(β-methyl)thiocholine iodide] | 1.88 | 1.6 | 114 ± 12.5 | 106.4 ± 3.0 | 106.4 ± 3.0 |  |  | kcat × 10^−3 (turnover rate) [1]: 6.88 ± 0.20 min^−1
CCN(CC)C(C)CN1c2ccccc2Sc2ccccc21 (stereo not drawn) [Ethopropazine, ethopropazine hydrochloride] |  |  |  |  |  |  |  | IC50 ([2]; IC50, 5 min incubation): 102 µM
CCOP(=O)(OCC)Oc1ccc([N+](=O)[O-])cc1 [Paraoxon] |  |  |  |  |  | 2.76 ± 0.25 | 15100 ± 383 | ki (bimolecular reaction constant, k2/Kd) [3]: 9.06 ± 0.23 ×10^−5 M^−1 min^−1; k2 (unimolecular rate constant) ([3]; listed as paraoxon): 2.76 min⁻¹
CCCC(=O)SCC[N+](C)(C)C.[I-] [BTC, S-butyrylthiocholine iodide] | 6.02 | 1.9 | 201 ± 21 | 4.4 ± 0.1 | 4.4 ± 0.1 |  |  | 
CNC(=O)Oc1ccc2c(c1)[C@]1(C)CCN(C)[C@@H]1N2C.CNC(=O)Oc1ccc2c(c1)[C@]1(C)CCN(C)[C@@H]1N2C.O=S(=O)(O)O [Eserine, eserine hemisulfate] |  |  |  |  |  | 1.58 ± 0.04 | 1670 ± 267 | ki (bimolecular reaction constant) [3]: 1.00 ± 0.16 × 10^5 M^−1 min^−1; ki (bimolecular reaction constant, k2/Kd) [3]: 1.00 ± 0.16 ×10^−5 M^−1 min^−1; ki (bimolecular reaction constant) ([3]; listed as eserine): (1.00 ± 0.16) × 10^5 M^−1 min^−1; IC50 ([2]; 5 min incubation): 0.199 ± 0.004 µM; IC50 ([2]; 5 min incubation, listed as eserine): 0.2 µM; IC50 [4]: 0.48 µM
CCC(=O)SCC[N+](C)(C)C.[I-] [PTC, propionylthio-choline iodide] | 2.20 | 2.0 | 68.9 ± 7.8 | 76.7 ± 1.0 | 76.7 ± 1.0 |  |  | kcat × 10^−3 (turnover rate) [1]: 4.95 ± 0.07 min^−1; Km [5]: 31.3 ± 3.7 µM
CC(=O)O [acetate] |  |  |  |  |  |  |  | influence on hydrolytic activity ([6]; range from 1 μM to 100 mM): not much influenced
CNC(=O)Oc1cccc2ccccc12 [Carbaryl, carbaryl] |  |  |  |  |  | 0.99 ± 0.01 | 1080 ± 67 | Kd [3]: 15.6 ± 2.9 µM; IC50 ([2]; IC50, 5 min incubation): 0.94 ± 0.005 µM
CCOC(=O)CC(SP(=O)(OC)OC)C(=O)OCC (stereo not drawn) [Malaoxon, malaoxon] |  |  |  |  |  | 1.59 ± 0.02 | 7830 ± 217 | Kd [3]: 3.4 ± 0.1 µM; k2 (unimolecular rate constant) ([3]; listed as malaoxon): 1.59 min⁻¹; IC50 ([2]; IC50, 5 min incubation): 0.061 µM
C[N+](C)(C)CCO [choline, choline chloride] |  |  |  |  |  |  |  | choline concentration above which the enzyme is inhibited [6]: higher than 20 mM
C=CC[N+](C)(C)c1ccc(CCC(=O)CCc2ccc([N+](C)(C)CC=C)cc2)cc1 [BW284C51, 1,5-bis(4-allyldimethylammoniumphenyl)-pentan-3-one dibromide] |  |  |  |  |  |  |  | IC50 ([2]; 5 min incubation): 1.66 ± 0.002 µM; IC50 [4]: 0.14 µM
CC(=O)SCC[N+](C)(C)C.[I-] [ATC, Acetylthiocholine iodide] | 1.53 | 1.7 | 88.3 ± 9.6 | 133.2 ± 1.6 | 133.2 ± 1.6 |  |  | kcat × 10^−3 (turnover rate) [1]: 8.60 ± 0.11 min^−1; ATC concentration above which enzymatic activity is inhibited ([6]; substrate inhibition): above 10 mM
